Data reported in patent publication US20080319191A1, “Crystalline form IV of linezolid” (Teva Pharmaceutical Industries Ltd., priority 2005, published 2008).

Experiments:
Type in all cases: physicochemical
[1] = Long term stability of linezolid Form IV at room temperature and accelerated conditions (40° C. and 55° C.)
Protocol: The long term stability of linezolid Form IV was tested by storing it at room temperature and under accelerated conditions at 40° C. and 55° C.

[2] = Stability of linezolid Form IV stored 10 days at 0-100% relative humidity at room temperature
Protocol: The stability of linezolid Form IV was tested by storing it for 10 days at a relative humidity of between 0 and 100% at room temperature.

[3] = Chemical stability of Form IV obtained by heating Form II at 170° C.; settings: Form IV obtained at 170° C. (one hour)
Protocol: Crystalline linezolid Form IV may be prepared by heating crystalline linezolid Form II to a temperature higher than 85° C. Crystalline linezolid Form IV is obtained by keeping crystalline linezolid Form II at a temperature of between 85-175° C. As an example, crystalline linezolid Form II was kept at a temperature of 170° C. during one hour. The polymorphic form of crystalline linezolid Form II was changed to crystalline linezolid Form IV.

CC(=O)NC[C@H]1CN(c2ccc(N3CCOCC3)c(F)c2)C(=O)O1 [linezolid Form IV]
Crystal form after storage (Results) ([1]; 25° C., 1 M): Form IV
Crystal form after storage (Results) ([1]; 25° C., 2 M): Form IV
Crystal form after storage (Results) ([1]; 25° C., 3 M): Form IV
Time stable on storage ([1]; 25° C., 40° C., and 55° C.): ≥ 3 months
Crystal form after storage (Results) ([1]; 25° C., As is): Form IV
Crystal form after storage (Results) ([1]; 40° C., 1 M): Form IV
Crystal form after storage (Results) ([1]; 40° C., 2 M): Form IV
Crystal form after storage (Results) ([1]; 40° C., 3 M): Form IV
Crystal form after storage (Results) ([1]; 55° C., 1 M): Form IV
Crystal form after storage (Results) ([1]; 55° C., 2 M): Form IV
Crystal form after storage (Results) ([1]; 55° C., 3 M): Form IV
Solvent content ([2]; As is (before storage)): 0.1%
Hygroscopicity ([2]; between 0-100% RH): non-hygroscopic
Stability ([2]; between 0-100% RH): stable
Solvent content ([2]; relative humidity 0%, 10 days, room temperature): 0.1%
Solvent content ([2]; relative humidity 20%, 10 days, room temperature): 0.1%
Solvent content ([2]; relative humidity 40%, 10 days, room temperature): 0.1%
Solvent content ([2]; relative humidity 60%, 10 days, room temperature): 0.1%
Solvent content ([2]; relative humidity 80%, 10 days, room temperature): 0.1%
Solvent content ([2]; relative humidity 100%, 10 days, room temperature): 0.1%
Time stable against transformation into Form II upon storage ([2]; relative humidity of about 0% to about 100%, room temperature): at least 10 days
Chemical stability [3]: chemically stable
